Experimental data taken from ChEMBL document CHEMBL1158250, “(all trans)-2,4,6,8,10,12-tetradecahexene-1,14-dial, a new pigment from Conidiobolus paulus” (J Nat Prod, 1996).

Key:
[1] = Toxicity in chick embryo up to 100 ug; set-up: species or system Gallus gallus; settings: chicken
Bacillus cereus = assay: Antibacterial activity against Bacillus cereus B-3705 after 24 hrs by antibiotic disk assay; format: functional
Escherichia coli = assay: Antibacterial activity against Escherichia coli B-3704 after 24 hrs by antibiotic disk assay; format: functional

O=C/C=C/C=C/C=C/C=C/C=C/C=C/C=O
Activity [1]: Non-toxic | MIC (Bacillus cereus): 10 µg | MIC (Escherichia coli): 50 µg
